From US20230331690A1, “THC DERIVATIVES, ORAL DOSAGE FORMS COMPRISING SAME, USES THEREOF FOR TREATING DISEASES AND DISORDERS AND SYNTHESIS THEREOF” (BAR-ILAN UNIVERSITY, priority 2020, published 2023)
Values joined by “and” are separate entries in the source; they are usually repeats but may differ in a detail not shown here. Equal values may be shown once.

Experiments:
hind paw of mice = experiment: Electronic Von-Frey mechanical sensitivity (withdrawal thresholds) after Paclitaxel-induced neuropathic pain; type: in vivo; conditions: for Withdrawal test, test 1 / Withdrawal test, test 4 / Withdrawal test, test 5 / Withdrawal test, test 6 / Withdrawal test, test 2 / Withdrawal test, test 3: per animal; for Withdrawal test, All group average: 8 mice; for Withdrawal test, Average: average per animal; for Withdrawal test, Change from b.l.: group average vs baseline; for Withdrawal test, test 6: additional test
Method: Mechanical sensitivity was evaluated by measuring the changes in tactile sensitivity in the hind paw of mice, using an Electronic Von-Frey apparatus (EVF). Withdrawal thresholds were measured, using the EVF apparatus, first at baseline (time=0) and then following drug, in a few periods after administration, by applying an accurate force on specific areas of the skin and measuring the needed force for the mouse to lift its paw.
Paclitaxel was utilized for the stimulation of a chemotherapy-induced neuropathic pain. Paclitaxel is anti-cancer chemotherapy drug classified as a “plant alkaloid” and an “antimicrotubule agent”.
Mice were divided into three groups of 8 mice each, as follows: • (a) Group no. 1—Morphine as positive control; • (b) Group no. […] 3—synthetic THC derivative 9-Desmethyl THC.
A portion of Paclitaxel was administered to each mouse by i.p. injection, on days 1, 3, 5 and 7 from the beginning of the experiment. At day 8, withdrawal thresholds were measured first at baseline (time=0), thereafter each mouse received a single portion of a drug substance, at 5 mg/Kg body weight concentration, by oral gavage and measurements took place.
The first checking point was 1 hour after administration of each drug. For every mouse, its threshold for the pain perception in which it removes its hind paw after the stabbing of the Von-Frey hair has been checked. Needed force (in gram force units) was measured each time and was recorded for every checking. This test was repeated 5 times for each mouse consecutively.
This procedure was repeated for all the three groups. The next checking point was 3 hours after administration, where the last withdrawal thresholds measurements were performed on the next morning, on day 9, which was 24 hours after administration.
Morphine was utilized as a positive control where group no. 1 mice received morphine (dissolved in a saline solution (0.9%) and injected subcutaneously) as an analgesic agent, prior to the mechanical sensitivity tests.
The tests described in this example are complicated and depend on numerous factors. Accordingly, results above 10.0 gram force (marked with an asterisk) were not included in the evaluation of the experimental data. In cases of exceptional results, an additional test was performed mouse (test 6) in order to assure the exceptional result.

mice = experiment: Hot plate assay, withdrawal reflex latency (WRL); type: in vivo; conditions: for Hot plate Time: per animal
[1] = t = 1 h after 5 mg/Kg single dose (oral gavage; morphine s.c.), * values >10.0 excluded from evaluation
[2] = t = 1 h after 5 mg/Kg, * values excluded
[3] = t = 3 h after 5 mg/Kg, * values excluded
[4] = t = 24 h after 5 mg/Kg, * values excluded

Compound: CCCCCc1cc(O)c2c(c1)OC(C)(C)[C@@H]1CCC=C[C@@H]21 [9-Desmethyl THC, 9-desmethyl-THC]
- average decrease in the withdrawal thresholds (hind paw of mice; 1 h after 5 mg/Kg, vs baseline): 10.2%
- decrease compared to baseline in the withdrawal thresholds (hind paw of mice; 3 h after 5 mg/Kg): 12.1%
- Withdrawal test, test 1 (hind paw of mice; [1]): 4.0 gram force (2×) and 7.2 gram force and 5.1 gram force and 4.3 gram force and 4.9 gram force and 7.3 gram force and 5.3 gram force
- Withdrawal test, All group average (hind paw of mice; t = 1 h after 5 mg/Kg): 5.55 gram force
- Withdrawal test, Average (hind paw of mice; t = 1 h after 5 mg/Kg): 4.82 gram force and 5.82 gram force and 5.84 gram force and 6.20 gram force and 5.12 gram force and 5.18 gram force and 5.98 gram force and 5.42 gram force
- Withdrawal test, Change from b.l. (hind paw of mice; t = 1 h after 5 mg/Kg): −10.2%
- Withdrawal test, test 4 (hind paw of mice; t = 1 h after 5 mg/Kg): 5.3 gram force (2×) and 5.7 gram force and 4.0 gram force and 4.3 gram force (2×) and 5.4 gram force and 4.5 gram force
- Withdrawal test, test 5 (hind paw of mice; t = 1 h after 5 mg/Kg): 4.3 gram force and 6.8 gram force (2×) and 4.4 gram force and 7.4 gram force and 4.6 gram force and 4.1 gram force and 5.6 gram force
- Withdrawal test, test 6 (hind paw of mice; t = 1 h after 5 mg/Kg): 6.3 gram force and 5.3 gram force
- Withdrawal test, test 2 (hind paw of mice; [2]): 6.1 gram force (2×) and 4.7 gram force and 9.8 gram force and 9.4 gram force and 6.7 gram force and 5.7 gram force and 4.0 gram force
- Withdrawal test, test 3 (hind paw of mice; [2]): 4.4 gram force and 5.1 gram force and 4.2 gram force (2×) and 6.2 gram force and 5.7 gram force and 7.0 gram force and 7.7 gram force
- Withdrawal test, All group average (hind paw of mice; t = 3 h after 5 mg/Kg): 5.43 gram force
- Withdrawal test, Average (hind paw of mice; t = 3 h after 5 mg/Kg): 5.34 gram force and 5.02 gram force and 5.00 gram force and 5.62 gram force and 5.70 gram force (2×) and 5.22 gram force and 5.86 gram force
- Withdrawal test, Change from b.l. (hind paw of mice; t = 3 h after 5 mg/Kg): −12.1%
- Withdrawal test, test 2 (hind paw of mice; t = 3 h after 5 mg/Kg): 5.1 gram force and 4.6 gram force and 4.8 gram force (2×) and 8.6 gram force (2×) and 4.7 gram force and 5.5 gram force
- Withdrawal test, test 4 (hind paw of mice; t = 3 h after 5 mg/Kg): 4.1 gram force and 5.0 gram force and 5.4 gram force (2×) and 9.5 gram force and 4.9 gram force and 6.0 gram force and 4.2 gram force
- Withdrawal test, test 5 (hind paw of mice; t = 3 h after 5 mg/Kg): 4.7 gram force (2×) and 6.3 gram force and 4.2 gram force and 4.3 gram force and 6.5 gram force and 6.8 gram force and 7.0 gram force
- Withdrawal test, test 6 (hind paw of mice; t = 3 h after 5 mg/Kg): 4.4 gram force and 4.9 gram force (2×)
- Withdrawal test, test 1 (hind paw of mice; [3]): 7.4 gram force and 5.0 gram force and 4.8 gram force and 4.3 gram force and 4.5 gram force and 4.6 gram force and 7.0 gram force and 6.8 gram force
- Withdrawal test, test 3 (hind paw of mice; [3]): 5.4 gram force and 4.2 gram force and 5.8 gram force and 5.2 gram force and 4.0 gram force (3×) and 4.6 gram force
- Withdrawal test, All group average (hind paw of mice; t = 24 h after 5 mg/Kg): 5.36 gram force
- Withdrawal test, Average (hind paw of mice; t = 24 h after 5 mg/Kg): 6.58 gram force and 4.80 gram force and 5.28 gram force and 6.12 gram force and 4.96 gram force and 4.74 gram force and 5.16 gram force and 5.26 gram force
- Withdrawal test, Change from b.l. (hind paw of mice; t = 24 h after 5 mg/Kg): −13.3%
- Withdrawal test, test 1 (hind paw of mice; t = 24 h after 5 mg/Kg): 5.4 gram force and 5.0 gram force (2×) and 4.2 gram force (3×) and 7.0 gram force and 7.1 gram force
- Withdrawal test, test 2 (hind paw of mice; t = 24 h after 5 mg/Kg): 6.9 gram force and 4.1 gram force (3×) and 4.7 gram force and 5.6 gram force and 4.4 gram force and 4.5 gram force
- Withdrawal test, test 3 (hind paw of mice; t = 24 h after 5 mg/Kg): 8.8 gram force and 4.1 gram force (2×) and 4.7 gram force and 4.2 gram force and 4.0 gram force and 5.6 gram force and 6.1 gram force
- Withdrawal test, test 4 (hind paw of mice; [4]): 4.4 gram force and 6.2 gram force and 8.1 gram force and 9.0 gram force and 5.0 gram force and 5.1 gram force and 7.6 gram force and 4.0 gram force
- Withdrawal test, test 5 (hind paw of mice; [4]): 7.4 gram force and 4.6 gram force (2×) and *10.0 gram force and 5.8 gram force and 7.3 gram force and 4.0 gram force (2×)

Compound: CN1CC[C@]23c4c5ccc(O)c4O[C@H]2[C@@H](O)C=C[C@H]3[C@H]1C5 [Morphine, reference compound]
- Withdrawal test, test 1 (hind paw of mice; [1]): 4.4 gram force (2×) and 8.5 gram force and 8.4 gram force and 5.2 gram force and 5.9 gram force and 4.7 gram force and 5.6 gram force
- Withdrawal test, All group average (hind paw of mice; t = 1 h after 5 mg/Kg): 6.21 gram force
- Withdrawal test, Average (hind paw of mice; t = 1 h after 5 mg/Kg): 5.68 gram force (2×) and 7.80 gram force and 7.17 gram force and 6.62 gram force and 6.02 gram force and 5.26 gram force and 5.45 gram force
- Withdrawal test, Change from b.l. (hind paw of mice; t = 1 h after 5 mg/Kg): +6.7%
- Withdrawal test, Change from b.l. (hind paw of mice; t = 1 h after 5 mg/Kg, listed as morphine): 6.7%
- Withdrawal test, test 4 (hind paw of mice; t = 1 h after 5 mg/Kg): 9.1 gram force and 8.3 gram force and 7.4 gram force and 6.5 gram force and 5.0 gram force and 4.2 gram force and 5.3 gram force and 4.4 gram force
- Withdrawal test, test 5 (hind paw of mice; t = 1 h after 5 mg/Kg): 4.2 gram force and 9.8 gram force and 5.7 gram force and 9.0 gram force and 4.9 gram force and 9.2 gram force and 7.5 gram force and 5.8 gram force
- Withdrawal test, test 2 (hind paw of mice; [2]): 6.5 gram force and 4.3 gram force and *10.3 gram force and 7.9 gram force and 8.3 gram force and 7.6 gram force and 4.2 gram force and 6.0 gram force
- Withdrawal test, test 3 (hind paw of mice; [2]): 4.2 gram force and 8.1 gram force and *10.5 gram force and 4.5 gram force and 4.3 gram force and 4.4 gram force and 4.9 gram force and *10.2 gram force
- Withdrawal test, All group average (hind paw of mice; t = 3 h after 5 mg/Kg): 5.79 gram force
- Withdrawal test, Average (hind paw of mice; t = 3 h after 5 mg/Kg): 6.28 gram force and 6.00 gram force and 4.68 gram force and 5.50 gram force and 5.66 gram force and 5.12 gram force and 6.34 gram force and 5.34 gram force
- Withdrawal test, Change from b.l. (hind paw of mice; t = 3 h after 5 mg/Kg): −0.5%
- Withdrawal test, Change from b.l. (hind paw of mice; t = 3 h after 5 mg/Kg, listed as morphine): −0.5%
- Withdrawal test, test 2 (hind paw of mice; t = 3 h after 5 mg/Kg): 5.5 gram force (2×) and 6.8 gram force and 4.3 gram force and 6.1 gram force and 5.9 gram force and 4.4 gram force and 5.3 gram force
- Withdrawal test, test 4 (hind paw of mice; t = 3 h after 5 mg/Kg): 5.5 gram force and 4.9 gram force and 4.6 gram force and 4.3 gram force and 7.0 gram force and 5.3 gram force and 6.4 gram force and 5.8 gram force
- Withdrawal test, test 5 (hind paw of mice; t = 3 h after 5 mg/Kg): 6.9 gram force and 8.6 gram force and 5.5 gram force and 5.6 gram force and 4.6 gram force and 5.2 gram force and 6.1 gram force and 5.7 gram force
- Withdrawal test, test 6 (hind paw of mice; t = 3 h after 5 mg/Kg): 7.0 gram force and 4.5 gram force
- Withdrawal test, test 1 (hind paw of mice; [3]): 7.2 gram force and 5.3 gram force (2×) and *11.6 gram force and 6.6 gram force and 5.6 gram force and 6.4 gram force and 5.4 gram force
- Withdrawal test, test 3 (hind paw of mice; [3]): 6.3 gram force and 4.4 gram force and 4.3 gram force (2×) and 4.9 gram force and 5.2 gram force and 8.4 gram force and 4.5 gram force
- Withdrawal test, All group average (hind paw of mice; t = 24 h after 5 mg/Kg): 5.09 gram force
- Withdrawal test, Average (hind paw of mice; t = 24 h after 5 mg/Kg): 5.23 gram force and 4.80 gram force and 5.44 gram force and 5.28 gram force and 4.32 gram force and 6.08 gram force and 4.54 gram force and 5.00 gram force
- Withdrawal test, Change from b.l. (hind paw of mice; t = 24 h after 5 mg/Kg): −12.5%
- Withdrawal test, Change from b.l. (hind paw of mice; t = 24 h after 5 mg/Kg, listed as morphine): −12.5%
- Withdrawal test, test 1 (hind paw of mice; t = 24 h after 5 mg/Kg): 5.2 gram force (2×) and 4.0 gram force (2×) and 4.3 gram force and 4.1 gram force and 6.9 gram force and 5.4 gram force
- Withdrawal test, test 2 (hind paw of mice; t = 24 h after 5 mg/Kg): 4.7 gram force (3×) and 5.2 gram force and 5.3 gram force and 5.8 gram force and 6.0 gram force and 4.0 gram force
- Withdrawal test, test 3 (hind paw of mice; t = 24 h after 5 mg/Kg): 4.5 gram force and 6.5 gram force and 4.1 gram force (2×) and 4.0 gram force and 4.8 gram force and 5.1 gram force and 4.2 gram force
- Withdrawal test, test 6 (hind paw of mice; t = 24 h after 5 mg/Kg): 6.5 gram force and 4.3 gram force
- Withdrawal test, test 4 (hind paw of mice; [4]): *12.9 gram force and 4.0 gram force and 4.1 gram force and 6.7 gram force and 4.7 gram force (2×) and 4.6 gram force and 7.4 gram force
- Withdrawal test, test 5 (hind paw of mice; [4]): 6.5 gram force and 4.3 gram force (2×) and 9.4 gram force and 4.6 gram force and 4.1 gram force and 8.0 gram force and 4.0 gram force
- Hot plate Avg. 6 mice (mice; 5 mg/kg oral, t = 0.5 h): 14.43 s
- Hot plate Time (mice; 5 mg/kg oral, t = 0.5 h, cut-off 30 s): 15.7 s and 13.1 s and 10.5 s and 23.8 s and 12.4 s and 11.1 s
- Hot plate Avg. 6 mice (mice; 5 mg/kg oral, t = 3 h): 14.05 s
- Hot plate Time (mice; 5 mg/kg oral, t = 3 h): 16.8 s and 11.4 s and 20.5 s and 12.6 s and 14.5 s and 8.5 s
- Hot plate Avg. 6 mice (mice; 5 mg/kg oral, t = 6 h): 14.25 s
- Hot plate Time (mice; 5 mg/kg oral, t = 6 h): 12.7 s and 8.0 s and 26.6 s and 19.7 s and 12.0 s and 6.5 s
- Hot plate Avg. 3 mice (mice; 5 mg/kg oral, t = 24 h): 5.8 s
- Hot plate Time (mice; 5 mg/kg oral, t = 24 h): 2.4 s and 9.0 s and 5.9 s
- average increase in WRL compared to baseline (t=0) (mice; 5 mg/kg, 0.5 h): 26.9%
- change in average WRL compared to t=0 at baseline (mice; 5 mg/kg, 3 h): +23%
- change in average WRL compared to baseline (mice; 5 mg/kg, 6 h): +25%
- average WRL less than baseline (mice; 5 mg/kg, 24 h, 3 animals): about 50%
